The subject of data set [1] is G361 human melanoma cell line. Kind of data set: G361 cell toxicity experiment (MTT assay), IAA with or without HRP. Particulars: 20 hours, G361 cells, FIG. 1. In kind it is cell-based. Here is the method: G361 human melanoma cell line (ATCC, Rockville, Md.) was cultivated in a 5% CO2, 37 °C, 10% fetal bovine serum (FBS), and 50 μg/mL penicillin containing RPMI 1640 culture (WelGene, Daegu, Korea).
The cells cultivated in the medium were divided into 24 wells (4×10^4/well), and was then cultivated in a medium without FBS for 24 hours. Cytotoxic effect was measured using MTT (3,4-dimethylthiazol-2-yl)2,5-diphenyltetrazolium bromide) assay (Kim, D. S., Jeon, S. E., Park, K. C. Cell Signal, 16, 81-8, 2004).
An HRP (1.2 mg/ml, Sigma, St. Louis, Mo.) treated group (indicated by the ‘∘’ in FIG. 1) and a group untreated with HRP (indicated by the ‘▪’ in FIG. 1) were separated, each with a final IAA density between 1 and 500 mM in the culture. After cultivating for 20 hours, 0.5 mg/Ml of MTT was added to the culture and cultivated for 4 more hours. After adding and dissolving 1 ml of dimethylsufoxide solution in the well, the absorption was measured using ELISA reader (TECAN, Salzburg, Austria) at 540 nm. The viability rate for the control group was set at 100%.
(Calculations) Cell viability(%)=(experimental group/control group absorption)×100

Data set [2] concerns Stomach cancer cell line (SNU1, SNU16, SNU601, SNU719), lung cancer cell line (NCI-H157, NCI-H1264), liver cancer cell line (SK-HEP-1). As to the kind of experiment: Toxicity experiment of various cell types (MTT assay), IAA/HRP, cancer cells. It counts as cell-based. Particulars: 20 hours, FIG. 2a-2c. Here is the method: (§1) Stomach cancer cell line (SNU1, SNU16, SNU601, SNU719, Korean Cell Bank, Seoul, Korea), and lung cancer cell line (NCI-H157, NCI-H1264, Korea Cell Bank, Seoul, Korea) were cultivated in a 5% CO2, 37 °C, 10% FBS, and 50 μg/mL penicillin containing RPMI 1640 culture (WelGene, Daegu, Korea), and liver cancer cell line (SK-HEP-1, Korean Cell Bank, Seoul, Korea) was cultivated in DMEM culture (WelGene, Daegu, Korea) under the same conditions. Fibroblasts have been used for the separation of the foreskin during phimosiectomy. […]
(§2) The cells cultivated in the medium were divided into 24 wells (4×10^4/well), and were then cultivated in a medium without FBS for 24 hours. Cytotoxic effect was measured using MTT (3,4-dimethylthiazol-2-yl)2,5-diphenyltetrazolium bromide) assay (Kim, D. S., Jeon, S. E., Park, K. C. […]
(§3) An HRP (1.2 mg/ml) treated group and a group untreated with HRP was separated, each with a final IAA concentration between 1 and 1000 mM in the culture. […] After adding and dissolving 1 ml of dimethylsufoxide solution in the well, the absorption was measured using ELISA reader at 540 nm. […]

The test system of data set [3] is normal human fibroblasts. Kind of data set: Toxicity experiment of various cell types (MTT assay), IAA/HRP, fibroblasts. In kind it is cell-based. The note with it: 20 hours, FIG. 2a-2c. As to the method:
as §1, §2, §3
For orientation: Tetrazolium assays rely on reduction of a dye to a coloured formazan, in cell work by metabolically active cells.

Data set [4] relates to G361 human melanoma cell line, mouse melanoma cell line B16, liver cancer cell (SK-HEP-1). Kind of data set: Toxicity experiment (MTT assay), IAA with UVB irradiation, cancer cells. It counts as cell-based. The note with it: 1 to 1000 mM, 20 hours, FIG. 3. Here is the method:
(§4) (Cell Culture) After cultivating G361 human melanoma cell line (ATCC, Rockville, Md.) in a 5% CO2, 37 °C, 10% fetal bovine serum (FBS), 50 μg/mL streptomyocin, and 50 μg/mL penicillin containing DMEM culture, mouse melanoma cell line B16 (Korea Cell Bank, Seoul, Korea) liver cancer cell (SK-HEP-1, Korea Cell Bank, Seoul, Korea) was cultivated in the DMEM culture under the same conditions. Fibroblasts have been used for the separation of the foreskin during phimosiectomy. Following the skin biopsy method of Rheinward and Green (Rheinwald J G, Green H. Serial cultivation of strains of human epidermal keratinocytes; the formation of keratinizing colonies from single cells. Cell 1975;6: 331-43.), the […] were cultivated in a 10% fetal bovine serum (FBS), 50 μg/mL of streptomyocin, and 50 μg/mL of penicillin containing DMEM culture.
(§5) The cells cultivated in the medium were divided into 24 wells (4×10^4/well), and was then cultivated in a medium without FBS for 24 hours. Cytotoxic effect was measured using MTT (3,4-dimethylthiazol-2-yl)2,5-diphenyltetrazolium bromide) assay. An ICA group treated with UVB (100 mJ/cm^2) and a group with ICA alone were separated, each with a final IAA concentration between 1 and 1000 mM in the culture. […] After adding and dissolving 1 ml of dimethylsufoxide solution in the well, the absorption was measured using ELISA reader at 540 nm. […]

The test system of data set [5] is normal human fibroblasts. Kind of data set: Toxicity experiment (MTT assay), IAA with UVB irradiation, fibroblasts. In kind it is cell-based. Particulars: 1 to 1000 mM, 20 hours, FIG. 3. Here is the method: as §4, §5
A short description of data set [6]: Photo-activation of IAA by different wavelength of light, free radical formation by DCF (dichlorofluorescein) assay. Particulars: 1 mM IAA, HL-2000-HP irradiator, FIG. 4. It counts as physicochemical. Here is the method: In order to study the effects of different wavelength of light, IAA was irradiated with HL-2000-HP (Ocean Optics, Dunedin, Fla., USA). Free radical formation was measured by DCF (dichlorofluorescein) assay. In order to induce activity of DCFH-DA, DCFH-DA was dissolved to a 1 mM concentration in 100% ethanol. 350 ul of the solution was then added to 1.75 ml of 0.01 N NaOH and allowed reaction for 5, 10, and 20 minutes. The activated DCFH-DA solution was then prepared by mixing 17.9 ml of 25 mM natrium-phosophoric acid buffer solution (pH 7.2). 1 mM of IAA was then administered to the activated DCFH-DA, and using HL-2000HP light irradiator, various wavelength filters (380, 400, 480, 520, 590, 640 nm) (Thorlabs, Inc., Long Beach, Calif., USA) were used to observe any photoactivation of IAA using each wavelength. Absorption was measured using ELISA reader at 490 nm.

Data set [7] concerns Human lung cancer cells (NCI-H1264 cell) tumor. Kind of data set: Treatment of cancer by combination of IAA and IPL in nude mouse (Hematoxylin & Eosin stain, TUNEL assay). It counts as in vivo. Particulars: IAA 50 mg/kg intravenous, 4 and 7 days after cancer cell injection, IPL 20 J/cm2 thirty minutes later, biopsy at twelve days, FIG. 6. The text has this: Intense pulse light (IPL) flash lamp by Eclipse was used for visible light irradiation. 20 Irradiation of 20 J/cm^2 intensity was used with a IPL apparatus able to irradiate between 515 nm to 1200 nm. After applying transmission gel (PROGEL DA-YO Medical, Seoul, Korea) to areas of tumor formation each region was irradiated twice using IPL. Human lung cancer cells (NCI-[…] cell, 1×10^6) were subcutaneously injected into nude mouse (Charles River Lab. Wilmington, Mass./male, 6 weeks old, weight 22-25 g). […] 4 and 7 days after cancer cell injection, these mice were injected with IAA (50 mg/kg). Thirty minutes after intravenous injection of IAA, mice were irradiated with IPL (20 J/cm2). Twelve days after cancer cell injection, biopsy was done and tunnel stain was also performed. […] Experimental IAA (10 mg/ml in 50 mM NaHCO/2% v/v ethanol/water, pH 7) was prepared. A control group of mice with tumor mass formation and an experimental group of mice injected with IAA (pH 7, 50 mg/kg) were separated. The injected group was again separated into two groups, one group treated with IAA after 4 days of cancer cell injection and the other after 7 days. Thirty minutes after intravenous injection of IAA, mice were irradiated with IPL (20 J/cm2). A TUNEL (Chemicon, Temecula, Calif.) assay kit was used for the present experiment. […]

In data set [8] the test system is NCI-H1264 cell. As to the kind of experiment: Prevention of cancer by combining IAA and IPL (treatment before appearance of tumor mass, biopsy). It counts as in vivo, nude mouse. Particulars: IAA and IPL treatment one, three and five days after NCI-H1264 cell injection, biopsy ten days after injection, FIG. 7. As to the method:
It was observed that the combination of IAA and IPL could induce cancer cell necrosis. However, prevention of histologic or distant metastasis is more important in the treatment of cancer. In order to study the prevention effect, IAA and IPL treatment was performed after cancer cell injection but before the appearance of tumor mass. One, three, and five days after NCI-[…] cell injection, IAA and IPL treatment was performed. Ten days after cancer cell injection, biopsy was done. […] Thus, it can be said that IAA and IPL treatment was effective in the prevention of distant metastasis.

SMILES strings stand for the structures.

Consider `O=C(O)Cc1c[nH]c2ccccc12` [IAA, Indole-3-acetic acid], for which the “cytotoxic effects (cell viability, MTT)” value is on record as “no signs of cytotoxic effects” in data set [1] (IAA alone (no HRP), IAA 1 to 500 mM); “definite cytotoxic effects” in data set [1] (IAA and HRP (1.2 mg/ml), IAA density of at least 100 mM). The “toxicity (cell viability, MTT)” value is recorded as “toxic to most of the cancer cells” in data set [2] (IAA administered with HRP (1.2 mg/ml)); “not toxic to either normal cells or cancer cells” in data set [2] (IAA alone, 1 to 1000 mM); “not toxic to normal human fibroblasts” in data set [3] (IAA administered with HRP (1.2 mg/ml), normal human fibroblasts); “not toxic to either normal cells or cancer cells” in data set [3] (IAA alone, 1 to 1000 mM, normal cells (fibroblasts)); “not toxic to either normal cells or cancer cells” in data set [4] (IAA alone); “toxic to most of the cancer cells” in data set [4] (IAA treated with UVB (100 mJ/cm^2)). Further, the “toxicity (cell viability, MTT)” value in data set [5] (IAA alone, normal cells (fibroblasts)) is “not toxic to either normal cells or cancer cells”; in data set [5] (IAA treated with UVB (100 mJ/cm^2), normal human fibroblasts) it was “not toxic to normal human fibroblasts”. Moreover, the “activation of IAA by light (free radical formation, DCF assay)” value in data set [6] (480 nm (blue) filter) and in data set [6] (520 (green) filter) was “particularly effective” in each case. Further, the “tumor necrosis (Hematoxylin & Eosin stain and TUNEL assay)” value in data set [7] was “can induce tumor necrosis”. Also, in data set [8], the “tumor cell growth (biopsy)” value is on record as “not observed in treated tissues”.

Source of the values: US20080014248A1, “Photosensitizer containing indole-3-alkylcarboxylic acid, and kit for photodynamic therapy containing the same” (priority 2006, published 2008).
